# Literature values in US11167084B2, “Control device for controlling the administration of propofol to a patient” (Fresenius Vial SAS, priority 2016, dated 2021).
# Details: Hill equation relating effect-site concentration to BIS; Emax=E0=100, y=2; FIG. 1 from T. A. Lim, Br J Anaesth 2006
smiles,measurement,value
CC(C)c1cccc(C(C)C)c1O [propofol],"EC50 (propofol effective concentration 50, effect-site)",4.14 µg/mL
